The values below come from patent US8637518B2, “Pyridazinone derivatives” (MERCK PATENT GmbH, priority 2008, dated 2014).

The target in series [1] is T1, Met kinase (Homo sapiens, UniProt P08581).
T1 construct: 6His (N); purchased Upstate 14-526; host or cells: Sf21 insect cells (S. frugiperda), baculovirus
Kind of series: Met kinase inhibition, enzyme assay (flashplate method). The class given is biochemical. The text has this: According to the manufacturer's data (Met, active, upstate, catalogue No. 14-526), Met kinase is expressed for the purposes of protein production in insect cells (Sf21; S. frugiperda) and subsequent affinity-chromatographic purification as “N-terminal 6His-tagged” recombinant human protein in a baculovirus expression vector.
The test plates used are 96-well Flashplate® microtitre plates from Perkin Elmer (Cat. No. SMP200). The components of the kinase reaction described below are pipetted into the assay plate. The Met kinase and the substrate poly Ala-Glu-Lys-Tyr, (pAGLT, 6:2:5:1), are incubated for 3 hrs at room temperature with radioactively labelled ^33P-ATP in the presence and absence of test substances in a total volume of 100 μl. The reaction is terminated using 150 μl of a 60 mM EDTA solution. After incubation for a further 30 min at room temperature, the supernatants are filtered off with suction, and the wells are washed three times with 200 μl of 0.9% NaCl solution each time. The measurement of the bound radioactivity is carried out by means of a scintillation measuring instrument (Topcount NXT, Perkin-Elmer).
The full value used is the inhibitor-free kinase reaction. This should be approximately in the range 6000-9000 cpm. The pharmacological zero value used is staurosporin in a final concentration of […]. The inhibitory values ([…]) are determined using the RS1_MTS program.
Kinase reaction conditions per well:
• 30 μl of assay buffer • 10 μl of substance to be tested in assay buffer with 10% of DMSO • 10 μl of ATP (final concentration 1 μM cold, 0.35 μCi of ^33P-ATP) • 50 μl of Met kinase/substrate mixture in assay buffer; • (10 ng of enzyme/well, 50 ng of pAGLT/well)
Solutions used: • Assay buffer:
50 mM HEPES • 3 mM magnesium chloride • 3 μM sodium orthovanadate • 3 mM manganese(II) chloride • 1 mM dithiothreitol (DTT)
pH=7.5 (to be set using sodium hydroxide) • Stop solution:
60 mM Titriplex III (EDTA) • ^33P-ATP: Perkin-Elmer; • Met kinase: Upstate, Cat. No. 14-526, Stock 1 μg/10 μl; spec. activity 954 U/mg; • Poly-Ala-Glu-Lys-Tyr, 6:2:5:1: Sigma Cat. No. P1152 In-vivo tests

For series [2], the system named is TPR-Met/NIH3T3 cells. Kind of series: In-vivo tests: tumour volume in mice injected subcutaneously with TPR-Met/NIH3T3 cells. The settings on record: female Balb/C mice, subcutaneous TPR-Met/NIH3T3 tumours, 200 mg/kg daily by gastric tube, 9 days. Here is the method: Experimental procedure: Female Balb/C mice (breeder: Charles River Wiga) were 5 weeks old on arrival. They were acclimatised to our keeping conditions for 7 days. Each mouse was subsequently injected subcutaneously in the pelvic area with 4 million TPR-Met/NIH3T3 cells in 100 μl of PBS (without Ca++ and Mg++). […] 100 μl of vehicle (0.25% methylcellulose/100 mM acetate buffer, pH 5.5) were administered daily to the control group, and 200 mg/kg of “A56” or “A91” dissolved in the vehicle (volume likewise 100 μl/animal) were administered daily to the treatment groups, in each case by gastric tube.
Measurement of the tumour volume: The length (L) and breadth (B) were measured using a Vernier calliper, and the tumour volume was calculated from the formula L×B×B/2.
Keeping conditions: 4 or 5 animals per cage, feeding with commercial mouse food (Sniff).

The structures appear in SMILES notation. pIC50: −log10 of the molar value.

T1 sequence (P08581 974-1390 limits assumed): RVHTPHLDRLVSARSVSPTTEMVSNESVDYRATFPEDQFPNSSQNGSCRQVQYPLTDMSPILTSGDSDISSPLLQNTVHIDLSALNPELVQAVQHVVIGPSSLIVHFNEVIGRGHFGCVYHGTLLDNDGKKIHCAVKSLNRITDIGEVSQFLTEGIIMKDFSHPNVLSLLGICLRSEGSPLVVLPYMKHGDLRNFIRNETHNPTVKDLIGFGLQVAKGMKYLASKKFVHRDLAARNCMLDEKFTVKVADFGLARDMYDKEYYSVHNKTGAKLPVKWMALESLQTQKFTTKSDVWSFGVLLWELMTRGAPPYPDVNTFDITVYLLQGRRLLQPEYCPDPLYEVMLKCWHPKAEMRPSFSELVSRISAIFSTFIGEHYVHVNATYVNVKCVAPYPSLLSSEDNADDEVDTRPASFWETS

Broadly, the pIC50 is the IC50 on a negative log10 scale, so that one unit is a factor of ten. `Cn1cc(-c2ccc(=O)n(Cc3cccc(-c4ncc(OC[C@H]5C[C@@H]5CN)cn4)c3)n2)cn1` [Compound A18, 2-{3-[5-((1S,2S)-2-Aminomethylcyclopropylmethoxy)pyrimidin-2-yl]benzyl}-6-(1-methyl-1H-pyrazol-4-yl)-2H-pyridazin-3-one] had a negative logarithm of the IC50 (pIC50) in series [1] of 6.00 to 8.00. Also, the antitumoural action result in series [2] was “significant antitumoural action”.

Turning to `Cn1cc(-c2ccc(=O)n(Cc3cccc(-c4ncc(OC5CCC(O)C5)cn4)c3)n2)cn1` (centres unmarked) [Compound A22, 2-{3-[5-(3-hydroxycyclopentyloxy)pyrimidin-2-yl]benzyl}-6-(1-methyl-1H-pyrazol-4-yl)-2H-pyridazin-3-one], the antitumoural action entry in series [2] is recorded as “significant antitumoural action”.

The term melting point denotes the temperature, or range, at which the solid turns liquid. Take `CC(C)Oc1cnc(-c2cccc(Cn3nc(-c4cccc(C#N)c4)ccc3=O)c2)nc1` [Compound D2, 3-{1-[3-(5-Isopropoxypyrimidin-2-yl)benzyl]-6-oxo-1,6-dihydropyridazin-3-yl}benzonitrile]: the melting point was in the range of 200 to 201 °C.

In turn, `COc1cnc(-c2cccc(Cn3nc(-c4cccc(C#N)c4)ccc3=O)c2)nc1` [Compound D3, 3-{1-[3-(5-Methoxypyrimidin-2-yl)benzyl]-6-oxo-1,6-dihydropyridazin-3-yl}-benzonitrile] gave a melting point of 229 to 230 °C.
